Data from US5688807A, “Method for treating 5HT2B receptor related conditions” (Eli Lilly and Company, priority 1995, dated 1997).
Structures can show the parent of a compound that is named as a salt. Where two headings read alike, the source gives them in different places.

Key:
rat 5-HT2B receptor = rat 5-HT2B receptor (Rattus norvegicus, UniProt P30994); assay: biochemical; format: binding;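 note: displacement of [3H]5-HT from membranes of suspension cells carrying cloned rat 5-HT2B receptor, incubated 15 min at 37 °C or 2 h at 0 °C, filter-bound radioactivity counted by scintillation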
Human 5-HT2B = target: T1, Human 5-HT2B (Homo sapiens, UniProt P41595); assay: [3H]Serotonin radioligand binding, human 5-HT2B;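 note: competition of tritiated serotonin binding to cell membranes, bound radioactivity on filters counted by liquid scintillation, IC50 from logistic fits converted to Ki with the Cheng-Prusoff equation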
T1 construct: expressed in transfected cells

Human 5-HT2A = Human 5-HT2A (Homo sapiens, UniProt P28223); assay: [125I]DOI radioligand binding, human 5-HT2A
Rat 5-HT2A = Rat 5-HT2A (Rattus norvegicus, UniProt P14842); assay: [125I]DOI radioligand binding, rat 5-HT2A; settings: AVG
[1] = target: 5-HT2B receptor (rat stomach fundus) (Rattus norvegicus, UniProt P30994);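 note: isometric contraction of isolated male Wistar rat stomach fundus strips, serotonin concentration-response curves after antagonist incubation, KB from dose ratio of agonist potency versus control curve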
[2] = target: T2, 5-HT2A receptor (rat jugular vein) (Rattus norvegicus, UniProt P14842); assay: Antagonism of serotonin response in rat jugular vein (apparent antagonist dissociation constant); settings: vs serotonin, ± standard error, read-out: 5-HT2A (Jugular) -log KB (converted)
T2 construct: rat jugular vein which is mediated by 5-HT2A receptors; from tissue; host or cells: rat jugular vein
Method: Apparent antagonist dissociation constants (KB) were determined for each concentration of antagonist according to the following equation: […]
where [B] is the concentration of the antagonist and dose ratio is the ED50 of the agonist in the presence of the antagonist divided by the control ED50. Generally, parallel shifts in the concentration-response curves occurred in the presence of antagonists. The results were expressed as the negative logarithm of the KB (i.e., -log KB). Calculations were completed using known methods.
The values in Table II are expressed as -log KB ± standard error (number of data points). The 5-HT2B value represents the negative log of the concentration of an antagonist that will produce a two fold dextral shift in the concentration response curve to serotonin in the rat stomach fundus which is mediated by 5-HT2B receptors. Likewise, the 5-HT2A value represents the negative log of the concentration of an antagonist that will produce a two fold dextral shift in the concentration response curve to serotonin in the rat jugular vein which is mediated by 5-HT2A receptors. The blank values in Table II indicate that the compound was not tested in the indicated assay.

distal colon = assay: Functional in vitro assay: antagonism of serotonin contraction of rat distal colon longitudinal muscle; settings: vs serotonin
Description: Functional In vitro Assay:
Sprague-Dawley rats (200-250g; Laboratory Supply, Indianapolis, Ind.) were sacrificed by cervical dislocation and 8 cm segment of distal colon was removed and washed in ice cold modified Kreb's solution of the following composition (millimolar): Nacl, 118.2; Kcl, 4.6; Cacl2. H2 O, 1.6; KH2 PO4, 1.2; MgSO4, 1.2; dextrose, 10.0; and NaHCO3, 24.8. The colon was mounted on a glass rod and the longitudinal muscle layer with attached myenteric plexi was removed and mounted in organ baths, containing above described Kreb's solution maintained at 37° C. and equilibrated with 95% O2 and 5% CO2. Tissues were placed under 2 g tension and allowed to stabilize for 1 hour. Isometric contractions were recorded as changes in grams of force using grass FT03 transducers and MI^2 - computerized dynograph system. Cumulative concentration-response curves for serotonin were obtained by a stepwise increase in concentration after washing out the preceding concentration for 10-15 minutes. Each agonist concentration remained in contact with the tissue for 5 minutes. Maximum response to each concentration was determined and digitized. EC50 values were taken as the concentration of agonist that produced half maximal contraction. After control responses were obtained, tissues were incubated with an appropriate concentration of antagonist for 15 minutes. Response to serotonin were then repeated in the presence of an antagonist. Concentration-response utilized only one concentration of antagonist per tissue. Apparent antagonist dissociation constants (KB) were determined for each concentration of antagonist according to the following equation:
KB =[B]/(dose ratio-1), where [B] is the concentration of the antagonist and dose ratio is the ED50 of the agonist in the presence of antagonist divided by the control ED50. The results were expressed as the negative logarithm of the KB (i.e., -log KB) (Br. J. Pharmacol. Methods 4:4165, (1980).
The functional in vitro method described supra. was used to test compounds of this invention. Values are expressed as pKi and pA2 (-log KB). The following table illustrates the results obtained when the compounds were tested using the Radioligand assay supra. (pKi) and the functional in vitro method described supra. (pA2)

[3] = Ki Rat 5-HT2B, [3H]Serotonin, 5-HT2B cells, AVG
[4] = [125I]DOI, AVG, read-out: Ki Human 5-HT2A
[5] = [3H]Serotonin, 5-HT2B cells, AVG, read-out: Ki Rat 5-HT2B
[6] = [3H]Serotonin, 5-HT2B cells, AVG, read-out: Ki Human 5-HT2B
[7] = Radioligand assay, Table III, read-out: pKi (converted)
[8] = rat stomach fundus, vs serotonin, ± standard error, read-out: 5-HT2B (Fundus) -log KB (converted)

Human 5-HT2A, sequence (P28223 whole entry): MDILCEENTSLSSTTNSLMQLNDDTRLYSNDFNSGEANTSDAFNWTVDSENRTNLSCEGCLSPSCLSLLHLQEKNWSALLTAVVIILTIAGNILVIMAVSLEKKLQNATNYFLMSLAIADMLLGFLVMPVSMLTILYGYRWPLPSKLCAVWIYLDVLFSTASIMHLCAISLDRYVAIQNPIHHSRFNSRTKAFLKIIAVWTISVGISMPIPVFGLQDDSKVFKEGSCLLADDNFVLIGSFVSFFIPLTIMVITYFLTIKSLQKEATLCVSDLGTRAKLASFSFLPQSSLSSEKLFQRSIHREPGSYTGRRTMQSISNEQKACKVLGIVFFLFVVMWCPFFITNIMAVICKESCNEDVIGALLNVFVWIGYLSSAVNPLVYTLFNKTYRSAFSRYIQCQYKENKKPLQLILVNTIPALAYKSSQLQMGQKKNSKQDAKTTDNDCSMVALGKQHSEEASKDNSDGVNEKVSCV
T2 sequence (P14842 whole entry): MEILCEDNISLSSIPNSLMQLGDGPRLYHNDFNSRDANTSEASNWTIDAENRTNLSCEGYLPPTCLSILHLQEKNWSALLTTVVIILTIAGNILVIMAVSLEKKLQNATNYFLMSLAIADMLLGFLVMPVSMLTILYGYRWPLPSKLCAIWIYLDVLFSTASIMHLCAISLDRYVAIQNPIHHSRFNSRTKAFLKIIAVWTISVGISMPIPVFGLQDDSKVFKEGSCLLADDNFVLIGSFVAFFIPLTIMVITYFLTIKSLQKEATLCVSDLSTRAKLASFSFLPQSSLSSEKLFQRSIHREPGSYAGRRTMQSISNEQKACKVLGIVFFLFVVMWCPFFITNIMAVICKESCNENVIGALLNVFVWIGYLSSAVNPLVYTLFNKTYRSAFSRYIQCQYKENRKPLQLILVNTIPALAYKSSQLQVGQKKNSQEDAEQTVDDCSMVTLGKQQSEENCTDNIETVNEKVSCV
Rat 5-HT2A, sequence (P14842 whole entry): as above
rat 5-HT2B receptor, sequence (P30994 whole entry): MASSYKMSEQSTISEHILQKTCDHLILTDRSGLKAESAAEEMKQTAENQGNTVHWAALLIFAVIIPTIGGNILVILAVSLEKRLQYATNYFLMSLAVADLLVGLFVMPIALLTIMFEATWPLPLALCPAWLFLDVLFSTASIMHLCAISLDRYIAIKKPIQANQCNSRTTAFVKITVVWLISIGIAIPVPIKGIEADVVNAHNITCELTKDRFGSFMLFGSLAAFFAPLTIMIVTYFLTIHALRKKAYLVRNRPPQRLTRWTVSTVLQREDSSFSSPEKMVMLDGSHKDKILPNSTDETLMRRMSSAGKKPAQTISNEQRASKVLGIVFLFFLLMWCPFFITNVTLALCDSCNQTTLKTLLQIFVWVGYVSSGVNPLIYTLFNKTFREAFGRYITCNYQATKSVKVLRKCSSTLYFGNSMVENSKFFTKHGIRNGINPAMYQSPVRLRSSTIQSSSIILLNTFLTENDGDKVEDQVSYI
5-HT2B receptor (rat stomach fundus), sequence (P30994 whole entry): as above
T1 sequence (P41595 whole entry): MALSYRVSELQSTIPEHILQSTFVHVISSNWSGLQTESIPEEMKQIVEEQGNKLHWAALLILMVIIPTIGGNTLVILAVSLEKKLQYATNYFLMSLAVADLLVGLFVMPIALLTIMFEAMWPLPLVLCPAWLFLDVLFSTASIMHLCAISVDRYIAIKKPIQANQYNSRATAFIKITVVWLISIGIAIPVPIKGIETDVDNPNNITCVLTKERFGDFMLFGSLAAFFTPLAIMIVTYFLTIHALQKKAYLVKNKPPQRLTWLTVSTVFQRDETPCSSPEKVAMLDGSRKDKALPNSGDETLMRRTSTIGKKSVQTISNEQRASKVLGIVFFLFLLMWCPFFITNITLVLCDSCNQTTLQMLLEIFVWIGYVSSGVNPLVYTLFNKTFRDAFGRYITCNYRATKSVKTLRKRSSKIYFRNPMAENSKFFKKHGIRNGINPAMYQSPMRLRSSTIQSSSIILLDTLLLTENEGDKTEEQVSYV

Cc1ccc2c(CCN)c[nH]c2c1Cl
Ki (rat 5-HT2B receptor; [3]): 7.94 nM
Ki (Human 5-HT2B): 11.2 nM
Ki (Human 5-HT2A; [4]): 27.6 nM
Ki (Rat 5-HT2A): 20.7 nM

COc1ccc(C(C)C2NCCc3c2[nH]c2ccc(C)cc32)cc1OC (single isomer, unassigned)
Ki (rat 5-HT2B receptor; [5]): 30.1 nM
Ki (Human 5-HT2B; [6]): 5.55 nM
Ki (Human 5-HT2A): 373 nM

CC(C)n1cc2c3c(cccc31)C1CC(C(=O)N[C@H]3CC[C@H](O)CC3)CN(C)C1C2 (stereo partly shown)
Ki (rat 5-HT2B receptor; [3]): 30.9 nM
Ki (Human 5-HT2B): 6.24 nM
Ki (Human 5-HT2A; [4]): 21.2 nM
Ki (Rat 5-HT2A): 2.82 nM

COc1ccc(CC2NCCc3c2[nH]c2cc(C)c(C)cc32)cc1OC (stereo not shown) [Example 16, 6,7-dimethyl-1,2,3,4-tetrahydro-1-[(3,4-dimethoxyphenyl)methyl]-9H-pyrido[3,4b]indole]
Kb [1]: 0.195 nM
Kb [2]: 7.08 nM

Cc1ccc2c3c([nH]c2c1Br)CNCC3
Ki (Human 5-HT2A): 21.7 nM
Ki (Rat 5-HT2A): 15.7 nM

Cc1ccc2c3c([nH]c2c1C)CNCC3 [Example 72, 7,8-dimethyl-1,2,3,4-tetrahydro-9H-pyrido[3,4b]-indole]
pKi (rat 5-HT2B receptor; Radioligand assay, Table III): 7.8
pA2 (-log KB) (distal colon): 7.5

COc1ccc(C(C)C2NCCc3c2[nH]c2cc(C)c(C)cc32)cc1OC (racemic) [Example 41, (±) 6,7-dimethyl-1-[(3,4-dimethoxyphenyl)-1-ethyl]-1,2,3,4-tetrahydro-9H-pyrido[3,4-b]indole (Z)-2-butenedioate]
Ki (rat 5-HT2B receptor; [7]): 6.46 nM
Kb [1, 8]: 0.155 nM
Kb [2]: 11.5 nM
pA2 (-log KB) (distal colon): 7.2

Brc1ccc2[nH]c3c(c2c1)CCNC3 [6-bromo-1,2,3,4-tetrahydro-9H-pyrido[3,4b]-indole]
pA2 (-log KB) (distal colon): 8.2

Cc1ccc2c3c([nH]c2c1Cl)CNCC3 [drawing 177]
Ki (rat 5-HT2B receptor; [5]): 2.69 nM
Ki (Human 5-HT2B; [6]): 2.68 nM
Ki (Human 5-HT2A): 20.6 nM
Ki (Rat 5-HT2A): 15.5 nM

CCCN(CCC)C1CCc2cccc(-c3ccno3)c2C1 (single isomer, unassigned)
Ki (rat 5-HT2B receptor; read-out: Ki Rat 5-HT2B, [3H]Serotonin, 5-HT2B cells, AVG): 79.3 nM
Ki (Human 5-HT2B; [6]): 215 nM
Ki (Human 5-HT2A; read-out: Ki Human 5-HT2A, [125I]DOI, AVG): 6160 nM

CC(C)n1cc2c3c(cccc31)C1CC(C(=O)NC3CCCCC3)CN(C)C1C2 (stereo not shown)
Ki (rat 5-HT2B receptor; [3]): 15.1 nM
Ki (Rat 5-HT2A): 2.05 nM

Cc1ccc2c(CCN)c[nH]c2c1Br
Ki (rat 5-HT2B receptor; [3]): 11.3 nM
Ki (Human 5-HT2A; [4]): 33.7 nM
Ki (Rat 5-HT2A): 14.2 nM

CC(C)n1cc2c3c(cccc31)C1CC(C(=O)NC3CCCCC3O)CN(C)C1C2 (stereo not shown) [drawing 86]
Ki (rat 5-HT2B receptor; [3]): 8.61 nM
Ki (Human 5-HT2A; [4]): 15.8 nM
Ki (Rat 5-HT2A): 2.39 nM

CCCOc1ccc(CC2NCCc3c2[nH]c2ccc(C)cc32)cc1OC (stereo not shown) [Example 31, 6-methyl-1-[(3-methoxy-4-propoxyphenyl)-methyl]-1,2,3,4-tetrahydro-9H-pyrido[3,4-b]indole]
Kb [1, 8]: 1.12 nM
Kb [2]: 51.3 nM

CN1CC(C(=O)NC2CCCCC2)CC2c3cccc4[nH]cc(c34)CC21 (stereo not shown)
Ki (rat 5-HT2B receptor; [3]): 19 nM
Ki (Rat 5-HT2A): 5.12 nM

CCc1ccc2[nH]c3c(c2c1)CCNC3Cc1ccc(OC)c(OC)c1 (stereo not shown) [Example 17, 6-ethyl-1,2,3,4-tetrahydro-1-[(3,4-dimethoxyphenyl)methyl]-9H-pyrido[3,4b]indole]
Kb [1, 8]: 0.347 nM
Kb [2]: 21.9 nM
pA2 (-log KB) (distal colon): 6.2

CC(C)n1cc2c3c(cccc31)C1CC(C(=O)NC3CCCCC3O)CN(C)C1C2 (stereo not shown) [drawing 84]
Ki (rat 5-HT2B receptor; [3]): 10.2 nM
Ki (Human 5-HT2A; [4]): 74.5 nM
Ki (Rat 5-HT2A): 8.91 nM

CCc1ccc2[nH]c3c(c2c1)CCNC3Cc1ccc(OC)c(OC)c1 (stereo not shown) [drawing 143]
Ki (rat 5-HT2B receptor; [5]): 8.16 nM
Ki (Human 5-HT2B; [6]): 1.5 nM
Ki (Human 5-HT2A): 23.4 nM

Cc1cc(Br)c2[nH]c3c(c2c1)CCNC3 [drawing 168]
Ki (Human 5-HT2A): 41.7 nM
Ki (Rat 5-HT2A): 47 nM

CC(C)n1cc2c3c(cccc31)C1CC(C(=O)NC3CCCCC3O)CN(C)C1C2 (stereo not shown) [drawing 87]
Ki (rat 5-HT2B receptor; [3]): 9.35 nM
Ki (Human 5-HT2A; [4]): 18.6 nM
Ki (Rat 5-HT2A): 2.44 nM

CC(C)n1cc2c3c(cccc31)C1CC(C(=O)N[C@H]3CC[C@@H](O)CC3)CN(C)C1C2 (stereo partly shown)
Ki (rat 5-HT2B receptor; [3]): 22.3 nM
Ki (Human 5-HT2B): 4.3 nM
Ki (Human 5-HT2A; [4]): 11.3 nM
Ki (Rat 5-HT2A): 1.57 nM

Cc1ccc2[nH]c3c(c2c1)CCNC3Cc1cccc2ccccc12 (stereo not shown)
Ki (rat 5-HT2B receptor; [5]): 3.31 nM
Ki (Human 5-HT2B; [6]): 0.74 nM
Ki (Human 5-HT2A): 4.63 nM

COc1ccc(CC2NCCc3c2[nH]c2ccc(C)cc32)c(OC)c1OC.Cl (stereo not shown) [Example 22, 6-methyl-1-[(2,3,4-trimethoxyphenyl)-methyl]-1,2,3,4-tetrahydro-9H-pyrido[3,4-b]indole hydrochloride]
Ki (rat 5-HT2B receptor; [7]): 5.37 nM
Kb [1, 8]: 6.17 nM
pA2 (-log KB) (distal colon): 4.8

Clc1ccc2[nH]c3c(c2c1)CCNC3 [6-chloro-1,2,3,4-tetrahydro-9H-pyrido[3,4b]-indole]
pA2 (-log KB) (distal colon): 7.2

COc1ccc(CC2NCCc3c2[nH]c2c(Cl)c(C)ccc32)cc1OC (stereo not shown)
Ki (rat 5-HT2B receptor; [5]): 3.19 nM
Ki (Human 5-HT2B; [6]): 0.84 nM
Ki (Human 5-HT2A): 0.93 nM

COc1ccc(CC2NCCc3c2[nH]c2ccc(C)cc32)cc1OC (stereo not shown) [Example 20, 6-methyl-1,2,3,4-tetrahydro-1-[(3,4-dimethoxyphenyl)methyl]-9H-pyrido[3,4b]indole hydrochloride]
Kb [2]: 61.7 nM
pA2 (-log KB) (distal colon): 7.8

CC(C)n1cc2c3c(cccc31)C1CC(C(=O)NC3CCCCC3O)CN(C)C1C2 (stereo not shown) [drawing 85]
Ki (rat 5-HT2B receptor; [3]): 11.4 nM
Ki (Human 5-HT2A; [4]): 108 nM
Ki (Rat 5-HT2A): 12.4 nM

NCCc1c[nH]c2ccc(C(N)=O)cc12
Ki (rat 5-HT2B receptor; [5]): 147 nM
Ki (Human 5-HT2B; [6]): 128 nM
Ki (Human 5-HT2A): 120 nM

Cc1ccc2[nH]c3c(c2c1)CCNC3C(C)c1cccc2ccccc12 (stereo not shown)
Ki (rat 5-HT2B receptor; [5]): 3.94 nM
Ki (Human 5-HT2B; [6]): 1.29 nM
Ki (Human 5-HT2A): 5.62 nM

COc1ccc(CC2NCCc3c2[nH]c2ccc(C)cc32)c(Cl)c1OC (stereo not shown) [Example 36, 6-methyl-1-[(2-chloro-3,4-dimethoxyphenyl)-methyl]-1,2,3,4-tetrahydro-9H-pyrido[3,4-b]indole hydrochloride]
Kb ([1]; read-out: 5-HT2B (Fundus) -log KB (converted)): 0.158 nM
Kb [2]: 7.24 nM

Cc1ccc2[nH]c3c(c2c1)CCNC3Cc1ccc(N(C)C)c2ccccc12 (stereo not shown)
Ki (rat 5-HT2B receptor; [5]): 5.02 nM
Ki (Human 5-HT2B; [6]): 1.64 nM
Ki (Human 5-HT2A): 0.83 nM

Cc1ccc2[nH]c3c(c2c1)CCNC3Cc1cccc2ccccc12 (racemic) [Example 51, (±) 6-methyl-1-(1-naphthalenylmethyl)-1,2,3,4-tetrahydro-9H-pyrido [3,4-b]indole hydrochloride]
Kb [1, 8]: 0.178 nM
Kb [2]: 8.51 nM

CN1CC(C(=O)N[C@H]2CC[C@H](O)CC2)CC2c3cccc4[nH]cc(c34)CC21 (stereo partly shown)
Ki (rat 5-HT2B receptor; [3]): 44.6 nM
Ki (Human 5-HT2B): 12.4 nM
Ki (Human 5-HT2A; [4]): 1.25 nM
Ki (Rat 5-HT2A): 5.36 nM

Brc1cccc2c3c([nH]c12)CNCC3
Ki (Human 5-HT2A): 22.7 nM
Ki (Rat 5-HT2A): 25.6 nM

Cc1ccc2c3c([nH]c2c1Cl)CNCC3 [Example 76, 7-methyl-8-chloro-1,2,3,4-tetrahydro-9H-pyrido[3,4b]-indole]
pA2 (-log KB) (distal colon): 8.3

Cc1ccc2c3c([nH]c2c1I)CNCC3
Ki (rat 5-HT2B receptor; [5]): 15.3 nM
Ki (Human 5-HT2B; [6]): 10.2 nM
Ki (Human 5-HT2A): 17.8 nM
